ChEMBL document CHEMBL1765088, “5-Benzamidoisoquinolin-1-ones and 5-(ω-carboxyalkyl)isoquinolin-1-ones as isoform-selective inhibitors of poly(ADP-ribose) polymerase 2 (PARP-2)” (J Med Chem, 2011)
Values joined by “and” are separate entries in the source; they are usually repeats but may differ in a detail not shown here. Identical values can stand only once.

Test system: not listed separately
Test: Selectivity for recombinant full length mouse PARP-2 over full length human PARP-1
Settings: not given

| Ratio | SMILES |
| --- | --- |
| 12 | N#Cc1ccc(-c2cnc3cccc(C(N)=O)c3n2)cc1 |
| 16 | O=C(Oc1cccc2c1CCNC2=O)c1ccccc1 |
| 60 | O=C(Oc1cccc2c(O)nccc12)c1ccccc1 |

Molecular target: Poly [ADP-ribose] polymerase 1 (Homo sapiens, UniProt P09874)
Test: Inhibition of full length human PARP-1 after 10 mins by FlashPlate scintillation proximity assay
Settings: not given

Poly [ADP-ribose] polymerase 1, sequence (P09874 whole entry): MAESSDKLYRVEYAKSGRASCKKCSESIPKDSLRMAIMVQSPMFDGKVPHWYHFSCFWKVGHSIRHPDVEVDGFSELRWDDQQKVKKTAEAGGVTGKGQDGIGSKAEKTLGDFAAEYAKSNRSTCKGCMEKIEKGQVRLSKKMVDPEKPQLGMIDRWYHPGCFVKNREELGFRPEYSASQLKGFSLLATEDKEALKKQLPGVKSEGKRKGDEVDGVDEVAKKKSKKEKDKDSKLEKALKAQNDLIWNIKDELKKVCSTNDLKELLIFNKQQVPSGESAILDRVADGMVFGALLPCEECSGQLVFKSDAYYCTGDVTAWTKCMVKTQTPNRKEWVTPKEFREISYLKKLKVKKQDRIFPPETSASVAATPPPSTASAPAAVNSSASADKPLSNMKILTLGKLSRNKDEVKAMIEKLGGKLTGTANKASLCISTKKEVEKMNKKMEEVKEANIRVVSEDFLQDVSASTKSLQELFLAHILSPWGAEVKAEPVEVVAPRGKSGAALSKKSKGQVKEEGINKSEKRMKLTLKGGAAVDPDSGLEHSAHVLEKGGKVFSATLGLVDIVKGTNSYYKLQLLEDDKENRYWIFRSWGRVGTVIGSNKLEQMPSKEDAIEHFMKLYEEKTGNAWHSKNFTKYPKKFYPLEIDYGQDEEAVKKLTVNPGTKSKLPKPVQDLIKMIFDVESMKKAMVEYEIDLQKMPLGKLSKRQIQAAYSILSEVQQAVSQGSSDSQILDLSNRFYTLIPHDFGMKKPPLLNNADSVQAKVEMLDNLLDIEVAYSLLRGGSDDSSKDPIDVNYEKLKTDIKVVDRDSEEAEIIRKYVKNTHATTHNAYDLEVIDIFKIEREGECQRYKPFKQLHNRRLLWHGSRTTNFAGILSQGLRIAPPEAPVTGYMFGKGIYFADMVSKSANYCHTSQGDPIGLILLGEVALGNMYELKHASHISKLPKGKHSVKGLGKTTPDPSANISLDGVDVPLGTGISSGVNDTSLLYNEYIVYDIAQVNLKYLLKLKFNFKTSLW

| IC50 | SMILES |
| --- | --- |
| > 50 µM | O=C(Nc1cccc2c(=O)[nH]ccc12)C12CC3CC(CC(C3)C1)C2 |
| > 100 µM | CC(C)(C)C(=O)Nc1cccc2c(=O)[nH]ccc12 |
| 0.94 µM and 1 µM | Nc1cccc2c(=O)[nH]ccc12 |
| > 80 µM | O=C(Nc1cccc2c(=O)[nH]ccc12)C1CCCCC1 |
| > 25 µM | O=C(O)c1cccc2c(=O)[nH]ccc12 |
| 4.1 µM | O=C(Oc1cccc2c(=O)[nH]ccc12)c1ccccc1 |

Molecular target: Poly [ADP-ribose] polymerase 2 (Mus musculus, UniProt O88554)
Test: Inhibition of recombinant full length mouse PARP-2 after 10 mins using [3H]NAD+ by solution-phase assay
Settings: not given

Poly [ADP-ribose] polymerase 2, sequence (O88554 whole entry): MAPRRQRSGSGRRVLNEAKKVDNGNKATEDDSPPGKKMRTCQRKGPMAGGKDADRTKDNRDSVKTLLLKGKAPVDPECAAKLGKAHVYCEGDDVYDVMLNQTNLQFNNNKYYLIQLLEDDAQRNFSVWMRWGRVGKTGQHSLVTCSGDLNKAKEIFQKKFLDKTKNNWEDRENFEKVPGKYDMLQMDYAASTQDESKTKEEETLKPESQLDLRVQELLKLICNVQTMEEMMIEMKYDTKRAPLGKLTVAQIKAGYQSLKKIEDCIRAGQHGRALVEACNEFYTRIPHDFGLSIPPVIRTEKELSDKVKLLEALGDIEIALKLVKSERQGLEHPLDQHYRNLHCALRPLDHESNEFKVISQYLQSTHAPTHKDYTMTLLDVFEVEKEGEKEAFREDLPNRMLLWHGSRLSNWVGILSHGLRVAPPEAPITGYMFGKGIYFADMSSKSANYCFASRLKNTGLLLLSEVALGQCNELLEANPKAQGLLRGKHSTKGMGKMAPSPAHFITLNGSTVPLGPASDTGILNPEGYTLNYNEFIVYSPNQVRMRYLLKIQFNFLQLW

| IC50 | SMILES |
| --- | --- |
| 3.2 µM | O=C(Nc1cccc2c(=O)[nH]ccc12)c1ccccc1I |
| 3.6 µM | O=C(Nc1cccc2c(=O)[nH]ccc12)c1ccc(F)cc1 |
| 3.9 µM | O=C(Nc1cccc2c(=O)[nH]ccc12)c1ccc(Cl)cc1 |
| 5.6 µM | Cc1ccccc1C(=O)Nc1cccc2c(=O)[nH]ccc12 |
| 1.6 µM | O=C(Nc1cccc2c(=O)[nH]ccc12)c1ccc([N+](=O)[O-])cc1 |
| 1.3 µM | O=C(Nc1cccc2c(=O)[nH]ccc12)c1ccc(I)cc1 |
| 6.5 µM | Cc1ccc(C(=O)Nc2cccc3c(=O)[nH]ccc23)cc1 |
| 0.09 µM | NC(=O)c1cccc2nc(-c3ccc(Cl)cc3)cnc12 |

Second part, the compound before the results:

| SMILES | IC50 |
| --- | --- |
| O=C(Nc1cccc2c(=O)[nH]ccc12)C12CC3CC(CC(C3)C1)C2 | 19.9 µM |
| Cc1cc2c(NC(=O)c3ccccc3)cccc2c(=O)[nH]1 | 6.3 µM |
| O=C(Nc1cccc2c(=O)[nH]ccc12)c1cccs1 | 7 µM |
| CC(C)(C)C(=O)Nc1cccc2c(=O)[nH]ccc12 | 29 µM |
| O=c1[nH]c(CCCCN2CC=C(c3ccc(F)cc3)CC2)nc2c(Cl)cccc12 | 0.5 µM |
| O=C(O)/C=C/c1cccc2c(=O)[nH]ccc12 | 4.7 µM |
| Nc1cccc2c(=O)n(CCC(=O)O)ccc12 | 1.6 µM |
| Nc1cccc2c(=O)[nH]ccc12 | 1.05 µM and 1 µM |
| O=C(Nc1cccc2c(=O)[nH]ccc12)C1CCCCC1 | 27.9 µM |
| O=C(O)CNc1cccc2c(=O)[nH]ccc12 | 0.55 µM |
| O=C(Nc1cccc2c(=O)[nH]ccc12)c1ccc(C(F)(F)F)cc1 | 3.3 µM |
| O=C(O)CCc1cccc2c(=O)[nH]ccc12 | 3 µM |
| O=C(O)c1cccc2c(=O)[nH]ccc12 | > 25 µM |
| O=C(Oc1cccc2c(=O)[nH]ccc12)c1ccccc1 | 1.5 µM |
| O=C(Nc1cccc2c(=O)[nH]ccc12)c1ccccc1 | 1.5 µM |

Test system: not listed separately
Test: Selectivity ratio, ratio of IC50 for full length human PARP-1 to IC50 for recombinant full length mouse PARP-2
Settings: not given

| Ratio IC50 | SMILES |
| --- | --- |
| > 3.4 | CC(C)(C)C(=O)Nc1cccc2c(=O)[nH]ccc12 |
| 0.9 | Nc1cccc2c(=O)[nH]ccc12 |
| 2.75 | O=C(Oc1cccc2c(O)nccc12)c1ccccc1 |

Test system: CT26
Test: Inhibition of mouse CT26 cell proliferation at 1 mM
Format: functional
Settings: not given

| SMILES | inhibition at 1000 µM |
| --- | --- |
| Nc1cccc2c(=O)[nH]ccc12 | 40% |

Test system: HT-29
Test: Growth inhibition of human HT-29 cells after 7 days by MTS assay
Settings: HT-29, 168 h

| IC50 | SMILES |
| --- | --- |
| > 200 µM | O=C(Nc1cccc2c(=O)[nH]ccc12)C12CC3CC(CC(C3)C1)C2 |
| > 200 µM | CC(C)(C)C(=O)Nc1cccc2c(=O)[nH]ccc12 |
| > 200 µM | Nc1cccc2c(=O)[nH]ccc12 |
| > 200 µM | O=C(Nc1cccc2c(=O)[nH]ccc12)C1CCCCC1 |
| > 200 µM | O=C(Nc1cccc2c(=O)[nH]ccc12)c1ccccc1 |

Test system: MDA-MB-231
Test: Growth inhibition of human MDA-MB-231 cells after 7 days by MTS assay
Settings: MDA-MB-231, 168 h

| IC50 | SMILES |
| --- | --- |
| > 200 µM | O=C(Nc1cccc2c(=O)[nH]ccc12)C12CC3CC(CC(C3)C1)C2 |
| > 200 µM | CC(C)(C)C(=O)Nc1cccc2c(=O)[nH]ccc12 |
| 170 µM | Nc1cccc2c(=O)[nH]ccc12 |
| > 200 µM | O=C(Nc1cccc2c(=O)[nH]ccc12)C1CCCCC1 |
| 139 µM | O=C(Nc1cccc2c(=O)[nH]ccc12)c1ccccc1 |

Test system: LNCaP
Test: Growth inhibition of human LNCAP cells after 7 days by MTS assay
Settings: 168 h

| IC50 | SMILES |
| --- | --- |
| 42 µM | O=C(Nc1cccc2c(=O)[nH]ccc12)C12CC3CC(CC(C3)C1)C2 |
| > 200 µM | CC(C)(C)C(=O)Nc1cccc2c(=O)[nH]ccc12 |
| > 200 µM | Nc1cccc2c(=O)[nH]ccc12 |
| > 200 µM | O=C(Nc1cccc2c(=O)[nH]ccc12)C1CCCCC1 |
| 98 µM | O=C(Nc1cccc2c(=O)[nH]ccc12)c1ccccc1 |

Test system: not listed separately
Test: Growth inhibition of human FEK4 cells after 7 days by MTS assay
Settings: FEK4, 168 h

| SMILES | IC50 |
| --- | --- |
| O=C(Nc1cccc2c(=O)[nH]ccc12)C12CC3CC(CC(C3)C1)C2 | > 200 µM |
| CC(C)(C)C(=O)Nc1cccc2c(=O)[nH]ccc12 | > 200 µM |
| Nc1cccc2c(=O)[nH]ccc12 | > 200 µM |
| O=C(Nc1cccc2c(=O)[nH]ccc12)C1CCCCC1 | > 200 µM |
| O=C(Nc1cccc2c(=O)[nH]ccc12)c1ccccc1 | > 200 µM |

Molecular target: PARP (mixed cellular PARPs)
Test: Inhibition of mixed PARPs from broken cell nuclei by broken nuclei assay
Settings: not given

| IC50 | SMILES |
| --- | --- |
| < 13 µM | O=C(O)c1cccc2c(=O)[nH]ccc12 |

Molecular target: PARP (mixed cellular PARPs)
Test: as above
Settings: not given
Remark: another data set of the same source

| IC50 | SMILES |
| --- | --- |
| < 11 µM | O=C(O)/C=C/c1cccc2c(=O)[nH]ccc12 |
| < 13 µM | O=C(O)c1cccc2c(=O)[nH]ccc12 |
